Conditions: for mass density: 303.28 K, Fluid (supercritical or subcritical phases), Vibrating tube method

FC(F)=C(F)C(F)(F)F [hexafluoropropene]
Conditions | vapor or sublimation pressure [kPa]
303.22 K, Liquid, Closed cell (Static) method | 839.7

Conditions | mass density [kg/m3]
2.4 kPa | 0.14
4.4 kPa | 0.19
5.3 kPa | 0.25
7.7 kPa | 0.38
11 kPa | 0.59
12.7 kPa | 0.7
13.6 kPa | 0.71
14.5 kPa | 0.85
16.3 kPa | 0.86
17.2 kPa | 0.87
18.1 kPa | 1.01
22.7 kPa | 1.19
24.5 kPa | 1.4
26.4 kPa | 1.46
28.1 kPa | 1.59
30 kPa | 1.72
33.6 kPa | 1.94
37.2 kPa | 2.14
38.2 kPa | 2.2
40 kPa | 2.21
41.8 kPa | 2.46
43.6 kPa | 2.43
47.2 kPa | 2.81
50.8 kPa | 3.02
52.5 kPa | 3.04
56 kPa | 3.26
57.9 kPa | 3.38
59.7 kPa | 3.48
61.4 kPa | 3.61
63.1 kPa | 3.73
64.8 kPa | 3.84
66.5 kPa | 3.93
68.3 kPa | 3.99
73.4 kPa | 4.37
76 kPa | 4.49
78.6 kPa | 4.64
81.2 kPa | 4.8
83.8 kPa | 4.98
86.4 kPa | 5.18
88.9 kPa | 5.4
94.2 kPa | 5.64
96.9 kPa | 5.73
98.7 kPa | 5.85
100.4 kPa | 6.09
103.1 kPa | 6.18
105.7 kPa | 6.35
108.4 kPa | 6.54
113.7 kPa | 6.9
116.4 kPa | 6.95
124.2 kPa | 7.43
126.7 kPa | 7.66
132.1 kPa | 7.96
134.8 kPa | 8.17
137.3 kPa | 8.36
139.9 kPa | 8.56
142.5 kPa | 8.68
145.1 kPa | 8.84
147.8 kPa | 9.01
153 kPa | 9.28
155.7 kPa | 9.53
158.4 kPa | 9.61
163.7 kPa | 9.96
166.2 kPa | 10.08
168.8 kPa | 10.29
171.4 kPa | 10.52
174 kPa | 10.66
176.6 kPa | 10.78
179.2 kPa | 10.96
181.8 kPa | 11.08
184.4 kPa | 11.32
187 kPa | 11.51
194.7 kPa | 11.98
197.5 kPa | 12.12
202.8 kPa | 12.46
206.2 kPa | 12.64
209.6 kPa | 12.92
213 kPa | 13.17
216.4 kPa | 13.34
219.9 kPa | 13.6
223.3 kPa | 13.85
226.8 kPa | 14.01
230.3 kPa | 14.3
233.7 kPa | 14.54
244.3 kPa | 15.23
247.7 kPa | 15.41
251.2 kPa | 15.74
254.6 kPa | 15.88
258.1 kPa | 16.18
261.6 kPa | 16.37
265.1 kPa | 16.6
268.6 kPa | 16.83
275.3 kPa | 17.32
278.7 kPa | 17.49
282.2 kPa | 17.78
285.5 kPa | 17.97
289 kPa | 18.22
295.7 kPa | 18.58
299.1 kPa | 18.89
309 kPa | 19.54
313.2 kPa | 19.76
317.3 kPa | 20.15
321.7 kPa | 20.39
325.7 kPa | 20.7
329.8 kPa | 21.01
338 kPa | 21.54
342 kPa | 21.84
346.2 kPa | 22.19
350.3 kPa | 22.34
358.6 kPa | 23.03
362.7 kPa | 23.29
366.9 kPa | 23.58
375.1 kPa | 24.18
379.2 kPa | 24.47
383.4 kPa | 24.75
387.5 kPa | 25.04
391.7 kPa | 25.35
395.8 kPa | 25.63
399.9 kPa | 25.95
406.9 kPa | 26.42
416.6 kPa | 27.12
421.9 kPa | 27.51
426.1 kPa | 27.84
435.7 kPa | 28.54
441.2 kPa | 28.92
446.7 kPa | 29.28
452.1 kPa | 29.75
457.4 kPa | 30.13
461.6 kPa | 30.45
467 kPa | 30.79
472.4 kPa | 31.26
477.7 kPa | 31.6
488.4 kPa | 32.46
